Biological target: T1, MAP2K2 (MEK2) (Homo sapiens, UniProt P36507)
T1 construct: purchased Thermo Fisher Scientific (Life Technologies) SelectScreen
Experiment: SelectScreen Z'LYTE
Assay type: biochemical
Settings: ATP 100 µM
In short: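 Percent values come from Thermo SelectScreen profiling of NU5455, combining activity and binding assays. CSF1R was run in Z'LYTE format at Km app ATP, and CAMK1 in Adapta format with ATP listed at 10.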

T1 sequence (P36507 whole entry): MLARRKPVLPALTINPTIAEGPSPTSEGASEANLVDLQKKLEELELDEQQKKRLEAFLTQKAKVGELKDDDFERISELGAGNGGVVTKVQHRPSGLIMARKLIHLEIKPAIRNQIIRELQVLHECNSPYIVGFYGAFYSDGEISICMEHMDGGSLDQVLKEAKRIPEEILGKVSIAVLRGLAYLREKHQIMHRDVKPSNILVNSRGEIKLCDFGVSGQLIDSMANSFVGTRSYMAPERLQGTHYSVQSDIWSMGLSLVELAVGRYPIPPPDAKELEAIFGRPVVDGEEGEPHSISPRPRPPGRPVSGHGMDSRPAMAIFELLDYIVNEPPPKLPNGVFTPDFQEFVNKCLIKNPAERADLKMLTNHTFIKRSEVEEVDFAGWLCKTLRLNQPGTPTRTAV

## CN(C(=O)CN1CCOCC1)c1ccc2sc3c(-c4cccc5c(=O)cc(N6CC7CCC(C6)O7)oc45)cccc3c2c1 [NU5455]
  inhibition at 1 µM: 3.9%
